Results published in patent US20220401418A1, “TREATMENT OF MALARIA USING HISTONE DEACETYLASE (HDAC) INHIBITORS” (FOUNDATION FOR NEGLECTED DISEASE RESEARCH, priority 2019, published 2022).
Like-named read-outs stand apart in the source and are kept apart here.

Assays:
P. falciparum = assay: In vivo efficacy in humanized SCID mouse model of P. falciparum malaria; settings: for reduction in parasitaemia: intra-peritoneal, humanized SCID mice
Excerpt: In vivo efficacy assessed in humanized SCID mouse model of P. falciparum malaria.

HERG = HERG (Homo sapiens, UniProt Q12809); assay: HERG binding; settings: summary statement on Table 3
Chain of HERG (Q12809 whole entry): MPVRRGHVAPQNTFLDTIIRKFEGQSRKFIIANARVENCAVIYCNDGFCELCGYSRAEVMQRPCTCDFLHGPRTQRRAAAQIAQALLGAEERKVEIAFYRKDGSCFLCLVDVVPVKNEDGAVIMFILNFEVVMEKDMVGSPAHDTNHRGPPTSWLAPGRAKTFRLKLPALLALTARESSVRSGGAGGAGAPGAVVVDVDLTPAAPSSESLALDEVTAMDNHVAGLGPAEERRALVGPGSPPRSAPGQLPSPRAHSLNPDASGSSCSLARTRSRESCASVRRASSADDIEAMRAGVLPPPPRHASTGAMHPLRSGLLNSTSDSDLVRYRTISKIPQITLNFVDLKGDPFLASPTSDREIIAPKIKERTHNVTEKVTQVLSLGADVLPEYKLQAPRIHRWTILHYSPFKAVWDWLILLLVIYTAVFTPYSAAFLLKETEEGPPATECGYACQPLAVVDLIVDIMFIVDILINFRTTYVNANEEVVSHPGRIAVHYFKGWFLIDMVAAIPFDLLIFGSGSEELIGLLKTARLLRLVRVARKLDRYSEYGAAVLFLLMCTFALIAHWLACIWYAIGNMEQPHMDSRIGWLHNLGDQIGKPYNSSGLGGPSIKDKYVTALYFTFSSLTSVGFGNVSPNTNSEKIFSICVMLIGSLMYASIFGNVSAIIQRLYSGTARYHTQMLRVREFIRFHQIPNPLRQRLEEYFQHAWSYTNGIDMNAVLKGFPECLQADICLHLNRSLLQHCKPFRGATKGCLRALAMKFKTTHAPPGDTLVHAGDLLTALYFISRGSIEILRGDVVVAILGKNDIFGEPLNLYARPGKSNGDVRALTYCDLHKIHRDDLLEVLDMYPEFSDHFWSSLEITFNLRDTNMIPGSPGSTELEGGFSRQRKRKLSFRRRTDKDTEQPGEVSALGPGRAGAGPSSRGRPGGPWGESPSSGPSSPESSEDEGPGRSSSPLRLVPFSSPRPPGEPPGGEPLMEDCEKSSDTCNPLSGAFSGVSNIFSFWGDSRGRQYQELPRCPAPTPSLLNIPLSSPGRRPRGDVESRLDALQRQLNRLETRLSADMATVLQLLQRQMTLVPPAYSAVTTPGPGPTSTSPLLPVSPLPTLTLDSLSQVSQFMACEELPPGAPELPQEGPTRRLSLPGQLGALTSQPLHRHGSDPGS
Excerpt: (§1) Method Reference for Table 3: Chung T D Y et al. In Vitro and In Vivo Assessment of ADME and PK Properties during lead selection and lead optimisation-guidelines, benchmarks and rules of thumb. In: Assay Guidance Manual. 2015.

Plasma stability, dog = type: in vitro ADME
Excerpt: as §1

[1] = Microsomal stability, RLM; type: in vitro ADME; settings: Test Conc. 10 μM
Excerpt: as §1

HepG2 = assay: Cytotoxicity HepG2; type: cell-based
Excerpt: as §1

[2] = type: in vitro ADME; settings: mouse, microsomes, 2 h, 10 μM
Excerpt: as §1

Pf-HDAC1 = biological target: T1, Pf-HDAC1 (Plasmodium falciparum, UniProt Q7K6A1); assay: PfHDAC1 fluorescent activity assay; type: biochemical
T1 construct: His-tag; FLAG-tag; purchased BPS Bioscience
T1 sequence (Q7K6A1 1-449): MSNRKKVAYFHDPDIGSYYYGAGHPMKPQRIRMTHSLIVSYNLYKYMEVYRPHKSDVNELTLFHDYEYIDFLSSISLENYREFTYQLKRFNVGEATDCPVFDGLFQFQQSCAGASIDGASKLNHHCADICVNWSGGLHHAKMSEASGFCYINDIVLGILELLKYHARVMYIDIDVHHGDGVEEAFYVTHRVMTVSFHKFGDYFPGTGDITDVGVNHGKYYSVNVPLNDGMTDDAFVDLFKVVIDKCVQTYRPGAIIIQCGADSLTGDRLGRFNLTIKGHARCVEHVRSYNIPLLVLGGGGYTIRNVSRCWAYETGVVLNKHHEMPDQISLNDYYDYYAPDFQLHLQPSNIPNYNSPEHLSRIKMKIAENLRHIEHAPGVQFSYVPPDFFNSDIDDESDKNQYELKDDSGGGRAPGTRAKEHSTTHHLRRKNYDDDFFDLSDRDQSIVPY
Method: The fluorescence developed was measured with excitation at 350-380 nm and emission at 440-460 nm.

CYP 2D6 = CYP 2D6 (Homo sapiens, UniProt P10635); assay: Cyp inhibition CYP 2D6; type: in vitro ADME
Chain of CYP 2D6 (P10635 whole entry, species assumed): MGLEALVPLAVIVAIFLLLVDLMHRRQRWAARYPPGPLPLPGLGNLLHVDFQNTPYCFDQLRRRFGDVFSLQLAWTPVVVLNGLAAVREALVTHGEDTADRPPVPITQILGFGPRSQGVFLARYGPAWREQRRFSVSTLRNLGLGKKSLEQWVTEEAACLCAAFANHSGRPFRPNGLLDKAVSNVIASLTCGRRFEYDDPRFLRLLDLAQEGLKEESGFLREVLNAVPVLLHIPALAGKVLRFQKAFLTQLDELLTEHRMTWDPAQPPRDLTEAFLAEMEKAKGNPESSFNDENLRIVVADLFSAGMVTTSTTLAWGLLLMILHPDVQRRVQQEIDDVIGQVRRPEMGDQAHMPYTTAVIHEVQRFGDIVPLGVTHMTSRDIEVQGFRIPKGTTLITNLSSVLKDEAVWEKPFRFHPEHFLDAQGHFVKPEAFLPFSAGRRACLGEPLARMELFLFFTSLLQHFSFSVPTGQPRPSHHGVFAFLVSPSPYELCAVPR
Excerpt: as §1

Plasma stability, mouse = type: in vitro ADME
Excerpt: as §1

[3] = Microsomal stability, HLM; type: in vitro ADME
Excerpt: as §1

[4] = test system: Hu HDAC (HeLa nuclear extract); assay: HDAC activity screening, fluorescence assay with HeLa nuclear extract; type: biochemical, human; settings: HeLa nuclear extract as enzyme source
Method: HDAC inhibition screening was performed using a fluorescence-based assay with a fluorescent substrate (BocLys (Ac)-AMC Substrate). HeLa nuclear extract was used as the enzyme source.
The assay was performed in 96-well black microplates, and the total volume of the assay was set at 100 μl. […] The enzyme mixture was prepared by adding […] of the diluted enzyme (HeLa nuclear extract) to […] of HDAC buffer. From the enzyme mixture, 40 μl was taken and mixed with 10 μl of test compound (final concentration from 0.01 to 10 μM) or vehicle (control). The final mixture (50 μl) was added to each well which was then pre-incubated at 37° C. for 10 min. The HDAC reaction was started by adding 50 μl of HDAC substrate: Boc-Lys (Ac)-AMC (Anaspec, Inc Fremont, Calif., USA). […] The release of AMC was monitored by measuring the fluorescence at an excitation wavelength of 360 nm and an emission wavelength of 460 nm. Buffer and substrate alone served as blank.

[5] = test system: Plasmodium falciparum 3D7; assay: Plasmodium falciparum asexual blood-stage (ABS) assay; type: cell-based
Method: Plasmodium falciparum 3[…]. falciparum asexual blood-stage (ABS) assay, for which the cells were resuscitated from the stabilate and maintained at 5% haematocrit. Red blood cells obtained from the hospital were used to maintain the culture at 1% parasitaemia while screening. Plasmodium falciparum: 3D7 cells were used as a target strain for the assay. Mefloquine (Sigma-Aldrich) was used as a standard inhibitor. At day 1, […] of 10 mM mefloquine was added to columns 12 and 24 of the sterile 384-well black, clear-bottom, cell culture assay plates followed by compound curves which were added using Echo. The P. falciparum 3D7 cells were counted and 20 ml of culture was prepared at 5% haematocrit, 0.3% parasitaemia (as one batch, i.e., 12 plates, prepare 260 ml, to allow for WellMate prime volume) for each plate. From this, 50 μl of culture was added to all wells on all plates using WellMate with small bore tubing on full (S-1) speed. […] The plates were read on Victor plate reader using '384sybrgreen' protocol (excitation 485 nm, emission 528 nm) after which the plate contents were aspirated into 5% Virkon, and disposed of after autoclaving. Percentage inhibition for each test compound was calculated using the following equation: % Inhibition=100-(TEST COMPOUND-BLANK)/(NO INHIBITION-BLANK)*100)

Plasma stability, rat = type: in vitro ADME
Excerpt: as §1

Plasma Protein = assay: Plasma protein binding, human; type: in vitro ADME; settings: summary statement on Table 3, across species
Excerpt: as §1

Plasma stability, human = type: in vitro ADME
Excerpt: as §1

CYP 1A2 = biological target: T2, CYP 1A2 (Homo sapiens, UniProt P05177); assay: Cyp inhibition CYP 1A2; type: in vitro ADME; settings: summary statement on Table 3, all CYP isoforms tested
T2 sequence (P05177 1-516): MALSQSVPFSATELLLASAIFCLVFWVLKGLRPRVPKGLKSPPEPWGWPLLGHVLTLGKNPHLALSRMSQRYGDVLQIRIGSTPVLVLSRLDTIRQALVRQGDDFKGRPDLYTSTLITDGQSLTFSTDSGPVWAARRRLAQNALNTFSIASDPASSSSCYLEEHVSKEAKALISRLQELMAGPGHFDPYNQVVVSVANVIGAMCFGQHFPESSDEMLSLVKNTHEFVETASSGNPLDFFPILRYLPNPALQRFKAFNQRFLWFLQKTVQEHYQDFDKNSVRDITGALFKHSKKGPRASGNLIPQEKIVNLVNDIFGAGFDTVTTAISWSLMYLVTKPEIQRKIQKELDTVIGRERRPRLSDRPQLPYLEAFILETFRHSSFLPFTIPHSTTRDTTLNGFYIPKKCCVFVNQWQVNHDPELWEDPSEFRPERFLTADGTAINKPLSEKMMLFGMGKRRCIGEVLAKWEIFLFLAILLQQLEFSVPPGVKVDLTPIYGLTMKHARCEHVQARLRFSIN
Excerpt: as §1

CYP 3A4 = CYP 3A4 (Homo sapiens, UniProt P08684); assay: Cyp inhibition CYP 3A4; type: in vitro ADME
Chain of CYP 3A4 (P08684 whole entry, species assumed): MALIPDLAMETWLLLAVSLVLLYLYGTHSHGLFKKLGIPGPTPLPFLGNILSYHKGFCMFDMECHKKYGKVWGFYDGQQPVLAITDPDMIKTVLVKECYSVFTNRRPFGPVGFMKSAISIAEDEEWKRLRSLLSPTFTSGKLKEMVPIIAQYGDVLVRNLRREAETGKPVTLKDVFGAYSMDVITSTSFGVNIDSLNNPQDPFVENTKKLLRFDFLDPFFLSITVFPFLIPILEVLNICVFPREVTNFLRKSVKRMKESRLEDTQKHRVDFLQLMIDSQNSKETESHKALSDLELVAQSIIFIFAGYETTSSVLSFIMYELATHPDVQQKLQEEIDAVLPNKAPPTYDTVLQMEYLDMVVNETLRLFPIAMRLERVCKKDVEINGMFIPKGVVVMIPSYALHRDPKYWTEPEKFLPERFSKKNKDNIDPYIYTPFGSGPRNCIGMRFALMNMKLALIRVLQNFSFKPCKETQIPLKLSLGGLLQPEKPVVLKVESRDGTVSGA
Excerpt: as §1

Work on `O=C(NO)c1ccc(Cn2cc(-c3ccc(CN4CCCC4)cc3)nn2)cc1` [FNDR-20123, N-hydroxy-4-((4-(4-(pyrrolidin-1-ylmethyl)phenyl)-1H-1,2,3-triazol-1-yl)methyl)benzamide] yielded a reduction in parasitaemia (P. falciparum; 50 mg/kg) of 98%, a reduction in parasitaemia (P. falciparum; 100 mg/kg) of 99% and a reduction in parasitemia (P. falciparum; oral, 50 mg/kg body weight for 4 days, humanized SCID mouse) of 67%. For the same compound, the “hERG liability” value (HERG) was “no hERG liability”, the “Plasma Stability (% remaining at 240 min)” value (Plasma stability, dog) was 97.72% and the “Microsomal Stability (% remaining at 120 min)” value [1] was 74.56%. For the same compound, the “Cytotoxicity HepG2 (% @ 100 μM)” value (HepG2) was 12.6%, the “Microsomal Stability (% remaining at 120 min)” value [2] was 76.15% and the IC50 (Pf-HDAC1) was 31 nM. For the same compound, the IC50 (CYP 2D6) was 28000 nM, the “Plasma Stability (% remaining at 240 min)” value (Plasma stability, mouse) was 89.16% and the “Microsomal Stability (% remaining at 120 min)” value ([3]; HLM, Test Conc. 10 μM, 120 min) was 85.31%. For the same compound, the “liver microsomal stability” value ([3]; summary statement on Table 3, all microsome species) was “good”, the IC50 [4] was about 3 nM and the IC50 ([4]; listed as 20123) was 3 nM. The IC50 ([5]; Plasmodium falciparum, P. falciparum 3D7, 72 h, read-out: Anti-Malarial Activity Asexual Blood Stage IC50) was 41 nM, the “anti-malarial activity in library screen” value ([5]; screen of proprietary compound library) was “potent anti-malarial activity” and the “Plasma Stability (% remaining at 240 min)” value (Plasma stability, rat) was 88.90%. For the same compound, the “plasma protein binding” value (Plasma Protein) was “low”, the “Plasma Stability (% remaining at 240 min)” value (Plasma stability, human) was 98.94% and the “inhibition of the CYP isoforms tested” value (CYP 1A2) was “no inhibition”. The IC50 (CYP 3A4) was 27000 nM.
